This note sets out measurements from patent publication US5306712A, “Fungicidal silicon-containing compounds and their agrochemical and medicinal uses” (Sanyo Company, Limited, priority 1991, dated 1994).

The subject of one test is Candida Albicans Sc. Put plainly: Antifungal Test (MIC, Sabouraud's agar). The format is cell-based. The conditions noted are these: 48 h, C. albica, 27° C., 2 days. As for the experimental part: (§1) (i) Preparation of the test solution: The sample to be tested was examined to determine a suitable solvent from those listed below and the method of dissolution, and then the sample was weighed (about 10 mg), dissolved in the selected solvent and diluted with sterilized distilled water to a concentration of 500 μg/ml. Samples of the resulting solution were then subjected to sequential dilution to half the previous concentration to prepare I2 samples in which the concentration of active compound is progressively halved.
(§2) (ii) Test procedure for antifungal activity: Using Nunklon (Registered trademark) 24.hole plates (manufactured by Nunk K. K.), 0.1 ml each of the diluted solutions described above was poured into a hole, 0.9 ml of Sabouraud's agar medium was added to each hole, giving a total of 1 ml in each hole, and mixed to prepare the plate medium.
1 Candida Albicans Sc. (C. albica)
(§3) These test strains were inoculated by means of a slant on Sabouraud's agar medium, cultured at 27° C. for 2 days for the yeast strains or for 7 to 14 days for the mold strains, and, kept intact, preserved at 5° C. (subcultured every 1 month). On the day of the test, in the case of the yeast medium, physiological saline to which had previously been added Tween 80 in an amount of 0.1% (w/v) was added to each medium to prepare 10^6 cells/ml suspensions; and, in the case of the mold medium, 4 ml each of the solution above was added to the surface of the agar slant, the surface was rubbed slightly with a stirrer or a platinum loop to suspend the spores, and then, by filtration through a funnel on which 2 sterilized gauzes were placed one upon another, 10^6 cells/ml suspensions were prepared. Using an Eppendorf pipette, 0.1 ml each of these suspension preparations was inoculated and cultivated. The culture was conducted at 27° C. for 2 days for the three strains of yeast, for 5 days for molds 4 , 5 and 6, and for 7 days for molds 7 and 8 to determine minimal inhibitory concentrations of the test samples.

The subject of another test is Candida albicans 427. Put plainly: Antifungal Test (MIC, Sabouraud's agar). It is filed as cell-based.
The subject of test [1] is Cryptococcus neoformans 58063. Put plainly: Antifungal Test (MIC, Sabouraud's agar). It is filed as cell-based. The following applies: Cryptococcus neoformans, 58063, 48 h; C. neofor; 27° C., 2 days. How it is done:
as §1, §2
3 Cryptococcus neoformans 58063 (C. neofor)
as §3

Another test relates to Mucor mucedo. Put plainly: Antifungal Test (MIC, Sabouraud's agar). It is filed as cell-based. The following applies: 120 h.
For the next test, the system named is Aspergillus fumigatus. Put plainly: Antifungal Test (MIC, Sabouraud's agar). The format is cell-based. The conditions noted are these: 120 h, A. fumiga, 27° C., 5 days. How it is done:
as §1, §2
5 Aspergillus fumigatus (A. fumiga)
as §3

For a further test, the system named is Microsporum gypseum. Put plainly: Antifungal Test (MIC, Sabouraud's agar). It is filed as cell-based. The conditions noted are these: Nannizzia gypsea, 120 h. As for the experimental part: as §1, §2
6 Microsporum gypseum (M. gypseu)
as §3

The subject of test [2] is Trichophyton mentagrophytes Sc. Nature of the test: Antifungal Test (MIC, Sabouraud's agar). It is filed as cell-based. The following applies: 168 h, T. mentag, 27° C., 7 days. How it is done: as §1, §2
7 Trichophyton mentagrophytes Sc. (T. mentag)
as §3

Another test deals with Trichophyton rubrum Sc. Nature of the test: Antifungal Test (MIC, Sabouraud's agar). The format is cell-based. The conditions noted are these: 168 h.
The subject of test [3] is Coriolus versicolor (Fungus D). Put plainly: Wood-preservative Activity (Antidecay). The following applies: paper disc, 30 μl of 300 ppm acetone solution, 25° C., 5 days.
Method: (§4) A fungal disc of about 4 mm diameter was inoculated on an agar medium (2% by weight malt extract, 1% glucose, 0.3% peptone and 2% agar) in a petri dish of diameter 9 cm, by placing the disc on the center of the medium. Paper disc specimens were prepared by impregnating 30 μl of an acetone solution containing 300 ppm of the test compound into the disc (diameter 8 mm, thickness 0.7 mm) and then subjecting it to dry sterilization. The disc specimens were placed in a circle at about 1 cm distance from the fringe of the grown fungus, three days after the inoculation. The specimens were then maintained at 25° C. for 5 days, after which the antifungal activity was determined by visual observation of infection of the specimens by the fungus.
(§5) The procedure described in Experiment 7 was repeated, except that the fungi tested were Coriolus versicolor (Fungus D) and Tyromyces palustris (Fungus E), which are prescribed in JIS A-9201.
Test [4] has as its system Tyromyces palustris (Fungus E). Put plainly: Wood-preservative Activity (Antidecay). The conditions noted are these: paper disc, 30 μl of 300 ppm acetone solution, 25° C., 5 days.
Method: as §4, §5
Test [5] has as its system Aspergillus niger (Fungus A). Put plainly: Antifungal Activity (paper disc on agar). The following applies: 30 μl of 300 ppm acetone solution, 25° C., 5 days.
Method: (§6) A fungal disc of about 4 mm diameter was inoculated on an agar medium (2% by weight malt extract, 1% glucose, 0.3% peptone and 2% agar) in a petri dish of diameter 9 cm, by placing the disc on the center of the medium. Paper disc specimens were prepared by impregnating 30 μl of an acetone solution containing 300 ppm of the test compound into the disc (diameter 8 mm, thickness 0.7 mm) and then subjecting it to dry sterilization. The disc specimens were placed in a circle at about 1 cm distance from the fringe of the grown fungus, three days after the inoculation. The specimens were then maintained at 25° C. for 5 days, after which the antifungal activity was determined by visual observation of infection of the specimens by the fungus. The fungi tested were:
Aspergillus niger (Fungus A),
In test [6] the test system is Gliocladium virens (Fungus B). Put plainly: Antifungal Activity (paper disc on agar). The conditions noted are these: 30 μl of 300 ppm acetone solution, 25° C., 5 days.
Method: as §6
Gliocladium virens (Fungus B), and
In test [7] the test system is Fusarium moliniforme (Fungus C). Put plainly: Antifungal Activity (paper disc on agar). The conditions noted are these: 30 μl of 300 ppm acetone solution, 25° C., 5 days.
Method: as §6
The antifungal activity is indicated by the following ratings:

Converted amounts (≈) assume the structure as drawn. Read-outs that look alike come from different tables or passages of the source.

What is called MIC is the lowest concentration found to suppress growth. On to `C[Si](C)(C)CC(O)(Cn1cncn1)c1ccc(F)cc1F` (centres unmarked) [Compound 1-12, 2-(2,4-Difluorophenyl)-1-(1H-1,2,4-triazole-1-yl)-3-trimethylsilyl-2-propanol], for which the MIC was greater than 50 µg/mL against Candida Albicans Sc.; greater than 50 µg/mL with Candida albicans 427 (Candida albicans, 48 h, C. alb 427, 27° C., 2 days, read-out: MIC); 6.2 µg/mL (≈ 19.9 µM) in test [1]; 12.5 µg/mL (≈ 40.1 µM) with Mucor mucedo (M. mucedo, 27° C., 5 days, read-out: MIC); 12.5 µg/mL (≈ 40.1 µM) in the test on Aspergillus fumigatus; 1.5 µg/mL (≈ 4.82 µM) against Microsporum gypseum. Besides, the MIC in test [2] came to 0.8 µg/mL (≈ 2.57 µM); in the test with Trichophyton rubrum Sc. (T. rubrum, 27° C., 7 days, read-out: MIC), 0.8 µg/mL (≈ 2.57 µM). In addition, the “wood-preservative (antidecay) activity, Fungus D” value in [3] was “+”. Further, the “wood-preservative (antidecay) activity, Fungus E” value in test [4] was “+”. Besides, in [5], the “antifungal activity, Fungus A” value is recorded as “-”. The “antifungal activity, Fungus B” value in test [6] was “+”. In addition, the “antifungal activity, Fungus C” value in [7] is “+”.
In the case of `C[Si](C)(C)CC(O)(Cn1cncn1)c1ccc(Cl)cc1` (centres unmarked) [Compound 1-2, 2-(4-Chlorophenyl)-1-(1H-1,2,4-triazol-1-yl)-3-trimethylsilyl-2-propanol], the MIC was greater than 50 µg/mL in the test with Candida Albicans Sc.; greater than 50 µg/mL in the test with Candida albicans 427 (Candida albicans, 427, 48 h); 12.5 µg/mL (≈ 40.3 µM) in test [1]; greater than 50 µg/mL against Mucor mucedo; greater than 50 µg/mL against Aspergillus fumigatus; greater than 50 µg/mL against Microsporum gypseum. For the same compound, the minimal inhibitory concentration (MIC) (in test [2]; in the test on Trichophyton rubrum Sc.) was 3.1 µg/mL (≈ 10 µM) in each case. For the same compound, the “wood-preservative (antidecay) activity, Fungus D” value in [3] is listed as “+”. The “wood-preservative (antidecay) activity, Fungus E” value in [4] was “+”. Besides, the “antifungal activity, Fungus A” value in test [5] is listed as “+”. Besides, in test [6], the “antifungal activity, Fungus B” value was “+”. The “antifungal activity, Fungus C” value in test [7] was “+”.
Consider `C[Si](C)(C)CC(O)(Cn1cncn1)c1ccc(F)cc1` (centres unmarked) [Compound 1-3, 2-(4-Fluorophenyl)-1-(1H-1,2,4-triazol-1-yl)-3-trimethylsilyl-2-propanol], for which the minimal inhibitory concentration (MIC) with Candida Albicans Sc. is greater than 50 µg/mL; against Candida albicans 427 (Candida albicans, 427, 48 h) it was greater than 50 µg/mL; in test [1] it was greater than 50 µg/mL; against Mucor mucedo, greater than 50 µg/mL; against Aspergillus fumigatus, greater than 50 µg/mL; in the test with Microsporum gypseum, greater than 50 µg/mL. For the same compound, the minimal inhibitory concentration (MIC) (in test [2]; against Trichophyton rubrum Sc.) was 25 µg/mL (≈ 85.2 µM) in each case. Further, the “antifungal activity, Fungus A” value in [5] is reported as “+”.
